Measurements reported in patent publication EP3095787A1, “[…] ACTIVE COMPOUNDS AS DAG-LIPASE INHIBITORS” (Universiteit Leiden, priority 2015, dated 2016).

Assays:
FAAH = molecular target: T1, FAAH (Mus musculus, UniProt O08914); experiment: Gel based competitive ABPP selectivity assay with TAMRA-FP in mouse brain proteome (FAAH band); type: biochemical; conditions: 10 µM inhibitor; TAMRA-FP 500 nM; mouse brain proteome; vehicle set to 100%
T1 construct: For gel based ABPP experiments mouse brain proteome (2.0 mg/mL, 20 µL) was preincubated; from tissue; host or cells: mouse brain proteome
T1 sequence (O08914 1-579): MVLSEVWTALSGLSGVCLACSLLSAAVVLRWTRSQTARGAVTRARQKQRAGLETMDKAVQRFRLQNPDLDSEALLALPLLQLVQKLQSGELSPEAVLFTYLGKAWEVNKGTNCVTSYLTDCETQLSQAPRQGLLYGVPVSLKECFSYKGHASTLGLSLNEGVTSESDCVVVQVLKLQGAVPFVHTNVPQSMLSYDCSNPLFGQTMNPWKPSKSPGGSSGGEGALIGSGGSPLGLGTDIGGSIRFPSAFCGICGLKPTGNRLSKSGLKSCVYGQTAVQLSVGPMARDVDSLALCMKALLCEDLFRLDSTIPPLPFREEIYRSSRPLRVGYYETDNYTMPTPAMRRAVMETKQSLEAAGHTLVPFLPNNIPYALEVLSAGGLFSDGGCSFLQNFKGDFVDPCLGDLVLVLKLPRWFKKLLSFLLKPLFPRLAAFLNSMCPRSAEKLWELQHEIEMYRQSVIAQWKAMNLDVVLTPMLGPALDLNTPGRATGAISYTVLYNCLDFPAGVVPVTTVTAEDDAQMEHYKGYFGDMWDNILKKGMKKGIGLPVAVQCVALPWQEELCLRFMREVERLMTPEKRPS
Protocol: (§1) For gel based ABPP experiments mouse brain proteome (2.0 mg/mL, 20 µL) was preincubated for 30 min with vehicle (DMSO) or compound to be tested in 0.5 µL DMSO at rt. And subsequently treated with 500 nM (final concentration) TAMRA-FP (TAMRA-FP was bought at Thermo Fischer) for 15 minutes at rt. The reactions were quenched with 10 µL standard 3 x SDS page sample buffer. The samples were directly loaded and resolved on SDS page gel (10 % acrylamide). The gels were scanned with a ChemiDoc MP sytem (Biorad, Cy 3 settings, 605/50 filter) and analyzed using Image Lab 4.1.
The percentage effect on FAAH was determined by measuring the integrated optical intensity of the band corresponding to FAAH (∼ 63 kD for mouse) using Image lab software. This activity was corrected for the total protein loading per lane as determined by coomassie staining and imaging with a ChemiDoc™ MP sytem (Biorad) followed by determination of the integrated optical intensity per lane by using Image Lab 4.1 software. The intensity of the protein bands from the samples treated with vehicle was set to 100%. […] N/A means less than 50% probe displacement at 10 µM inhibitor concentration.

hDAGL-α [1] = molecular target: T2, hDAGL-α (Homo sapiens, UniProt Q9Y4D2); experiment: Biochemical hDAGL-α activity assay (PNP-butyrate hydrolysis, 96 well plate); set-up: expressed in transfected cells; host or cells: HEK293T (transient), membrane fraction; conditions: PNP-butyrate 0.3 mM, membranes of HEK293T cells transfected with hDAGL-α; for IC50: read-out: DAGL-α Activity assay pIC50 (converted)
T2 sequence (Q9Y4D2 1-1042): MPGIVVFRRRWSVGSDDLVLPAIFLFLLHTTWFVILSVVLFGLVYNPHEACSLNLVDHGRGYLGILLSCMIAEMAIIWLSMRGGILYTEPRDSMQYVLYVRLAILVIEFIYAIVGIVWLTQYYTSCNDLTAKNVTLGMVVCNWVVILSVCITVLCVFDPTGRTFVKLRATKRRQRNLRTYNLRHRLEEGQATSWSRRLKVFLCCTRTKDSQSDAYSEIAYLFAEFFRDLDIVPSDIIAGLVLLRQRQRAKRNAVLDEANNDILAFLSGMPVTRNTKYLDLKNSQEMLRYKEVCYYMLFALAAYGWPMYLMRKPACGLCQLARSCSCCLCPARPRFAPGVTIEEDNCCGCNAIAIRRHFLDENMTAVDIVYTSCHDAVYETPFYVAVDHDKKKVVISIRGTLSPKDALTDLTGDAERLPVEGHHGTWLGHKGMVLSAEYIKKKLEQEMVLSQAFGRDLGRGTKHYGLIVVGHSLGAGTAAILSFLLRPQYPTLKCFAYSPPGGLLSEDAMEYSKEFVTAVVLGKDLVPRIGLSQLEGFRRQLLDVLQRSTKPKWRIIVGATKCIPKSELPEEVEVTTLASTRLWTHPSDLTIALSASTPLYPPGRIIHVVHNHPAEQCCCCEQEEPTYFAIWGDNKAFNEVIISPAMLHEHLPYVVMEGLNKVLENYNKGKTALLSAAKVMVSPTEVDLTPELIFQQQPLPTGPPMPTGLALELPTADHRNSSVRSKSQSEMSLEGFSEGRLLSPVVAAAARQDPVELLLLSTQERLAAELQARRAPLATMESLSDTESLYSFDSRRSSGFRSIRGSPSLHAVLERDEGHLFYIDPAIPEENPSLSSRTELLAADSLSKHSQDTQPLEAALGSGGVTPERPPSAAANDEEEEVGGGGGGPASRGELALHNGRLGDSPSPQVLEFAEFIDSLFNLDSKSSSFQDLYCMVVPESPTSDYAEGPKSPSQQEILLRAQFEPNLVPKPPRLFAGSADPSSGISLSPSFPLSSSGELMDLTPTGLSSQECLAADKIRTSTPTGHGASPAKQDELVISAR
Protocol: The biochemical hDAGL-α activity assay is based on the hydrolysis of para-nitrophenylbutyrate (PNP-butyrate) by membrane preparations from HEK293T cells transiently transfected with hDAGL-α. 200 µL reactions were performed in flat bottom Greiner 96-wells plates in a 50 mM pH 7.2 Hepes buffer. Membrane protein fractions from HEK293T cells transiently transfected with hDAGL-α (0.05 µg/µL final concentration) were used as hDAGL-α source. Compounds to be tested were introduced in 5 µL DMSO. The mixtures were incubated for 30 minutes before 5.0 µL 12 mM PNP-butyrate (final concentration 0.3 mM) in DMSO was added (final DMSO concentration 5.0%). Kinetics were followed immediately after addition of PNP-butyrate on a plate reader (TECAN GENios® microplate reader), by measuring the OD420 every 60 seconds, for 20 minutes at 37°C. The slope of the linear region from 5-15 minutes was determined, and all experiments were performed at N = 2, n = 2 for experimental measurements and N = 2, n = 4 for controls.
Data analysis: Z'-factor of each plate was determined for the validation of each experiment, using the following formula Z' = 1-3(σpc + σnc)/(µpc - µnc). The slope from 5-15 minutes of the positive control (pc: hDAGL-α, DMSO), and the negative control (nc: Mock, DMSO) was used. Plates were accepted for further analysis when Z' > 0.6. Kinetic measurements were corrected for the average absorption of the negative control (mock, DMSO). The slope of the linear region from 5-15 minutes was determined. The average, standard deviation (SD) and standard error of mean (SEM) were calculated and normalized to the corrected positive control. Data was exported to Graphpad Prism 5.0 for the calculation of the pIC50 using a nonlinear dose-response analysis.

serine hydrolases = experiment: Comparative and competitive gel ABPP selectivity in mouse brain membrane proteome (TAMRA-FP and MB064); type: biochemical; conditions: 1 µM; including ABHD6 and ABHD12
Protocol: as §1
To investigate the selectivity of compound 25 in the mouse brain proteome comparative and competitive ABPP was used with a broad-spectrum FP-based probe (TAMRA-FP) and the tailored DAGL-α ABP MB064. As a reference the widely used β-lactone-based DAGL-inhibitors THL and OMDM-188, two broad-spectrum covalent and irreversible serine hydrolase inhibitors, were firstly tested.

hDAGL-α [2] = molecular target: T2, hDAGL-α; experiment: Mode of action (reversibility) experiment: size exclusion chromatography, then MB064 labeling; type: biochemical; set-up: expressed in transfected cells; conditions: pre-incubation at IC80 concentration; remaining activity visualized with MB064; n=3
Protocol: To determine the mode of action (reversible versus irreversible) of the inventive compounds, an experiment in which human DAGL-α membranes were pre-incubated at the IC80 concentration of compound 25 or the irreversible DAGL inhibitor KT-109 was performed.

IC50 (hDAGL-α [1]) [nM]	Molecule	FAAH ABPP (10 µm) % Eff. (FAAH)	other results
0.851	Cc1ccc(-c2cnc3nc(C(=O)CCc4ccc(Oc5ccc(C(F)(F)F)cn5)cc4)oc3c2)cc1 [Compound 29, 1-(6-(p-Tolyl)oxazolo[4,5-b]pyridin-2-yl)-3-(4-((5-(trifluoromethyl)pyridin-2-yl)oxy)phenyl)propan-1-one]	N/A (N/A means less than 50% probe displacement at 10 µM inhibitor concentration)	
5.01	O=C(CCCCCc1ccccc1)c1nc2c(F)cc(-c3ccc(F)cc3)cc2o1 [Compound 30, 1-(4-fluoro-6-(4-fluorophenyl)benzo[d]oxazol-2-yl)-6-phenylhexan-1-one]	N/A (N/A means less than 50% probe displacement at 10 µM inhibitor concentration)	
8.32	Cc1ccc(-c2cnc3nc(C(=O)CCc4ccccc4Oc4ccccc4)oc3c2)cc1 [Compound 26, 3-(2-phenoxyphenyl)-1-(6-(p-tolyl)oxazolo[4,5-b]pyridin-2-yl)propan-1-one]	N/A (N/A means less than 50% probe displacement at 10 µM inhibitor concentration)	
3.72	Cc1ccc(-c2cnc3nc(C(=O)CCc4cccc(Oc5ccccc5)c4)oc3c2)cc1 [Compound 27, 3-(3-Phenoxyphenyl)-1-(6-(p-tolyl)oxazolo[4,5-b]pyridin-2-yl)propan-1-one]	N/A (N/A means less than 50% probe displacement at 10 µM inhibitor concentration)	

Continued, molecule first:

Molecule	IC50 (hDAGL-α [1]) [nM]	FAAH ABPP (10 µm) % Eff. (FAAH)	other results
Cc1ccc(-c2cc(F)c3nc(C(=O)CCCCCc4ccccc4)oc3c2)cc1 [Compound 32, 1-(4-fluoro-6-(p-tolyl)benzo[d]oxazol-2-yl)-6-phenylhexan-1-one]	1.41	N/A (N/A means less than 50% probe displacement at 10 µM inhibitor concentration)	
Cc1ccccc1-c1cc(F)c2nc(C(=O)CCCCCc3ccccc3)oc2c1 [Compound 33, 1-(4-fluoro-6-(o-tolyl)benzo[d]oxazol-2-yl)-6-phenylhexan-1-one]	1.32	N/A (N/A means less than 50% probe displacement at 10 µM inhibitor concentration)	
CCCCCCCCCCC[C@@H](C[C@@H]1OC(=O)[C@H]1CCCCCC)OC(=O)[C@@H](NC=O)[C@@H](C)CC [OMDM-188, reference compound]			number of serine hydrolases whose labeling is blocked (serine hydrolases): at least 4
CCCCCCCCCCC[C@@H](C[C@@H]1OC(=O)[C@H]1CCCCCC)OC(=O)[C@H](CC(C)C)NC=O [THL, Tetrahydrolipstatin, reference compound]			number of serine hydrolases whose labeling is blocked (serine hydrolases): at least 4
O=C(N1CCCCC1Cc1ccccc1)n1cc(-c2ccc(-c3ccccc3)cc2)nn1 (stereo not shown) [KT-109, reference compound]			recovery of DAGL-α activity after size exclusion chromatography (hDAGL-α [2]): No recovery of DAGL-α activity
Cc1ccc(-c2cnc3nc(C(=O)CCc4ccc(Oc5ccccc5)cc4)oc3c2)cc1 [Compound 28, 3-(4-phenoxyphenyl)-1-(6-(p-tolyl)oxazolo[4,5-b]pyridin-2-yl)propan-1-one]	5.13	N/A (N/A means less than 50% probe displacement at 10 µM inhibitor concentration)	
1-(4-fluoro-6-(2-fluorophenyl)benzo[d]oxazol-2-yl)-6-phenylhexan-1-one [Compound 31]		N/A (N/A means less than 50% probe displacement at 10 µM inhibitor concentration)	DAGL-α Activity assay pIC50 (hDAGL-α [1]): 8.6
